The record followed here is US11433053B2, “LSD1 inhibitor and preparation method and application thereof” (CSPC ZHONGQI PHARMACEUTICAL TECHNOLOGY (SHIJIAZHUANG) CO., …, priority 2017, dated 2022).

In general, IC50 refers to the point on the concentration scale where inhibition reaches its midpoint. Read a low IC50 as greater potency in that assay. By bioavailability is commonly meant the share of a dose that reaches the circulation, judged against a reference dose that is usually intravenous.

In data set [1] the target is human LSD1 (Homo sapiens (Human), UniProt O60341). The data set is described as follows: Evaluation of enzyme activity: LSD1 fluorescence coupling enzyme assay (HRP/Amplex Red). In kind it is biochemical. The note with it: human LSD1, histone H3(1-21)K4me2 peptide 10 μM, 30 min pre-incubation. In a few lines:
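Human LSD1 preincubated 30 min with compound, then reacted with H3(1-21)K4me2 peptide (10 μM). FAD-dependent H2O2 detected via HRP/Amplex Red fluorescence (Ex/Em 535/590). Ten-dose, 3-fold dilutions in duplicate from 10 μM gave IC50s, binned into activity classes.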

Data set [2] is described as follows: Pharmacokinetic evaluation in C57BL/6 mice after intravenous and oral administration. To be noted: male, mouse, plasma; for Cmax / clearance / half-life / Vd: IV 1 mg/kg; for Cmax: oral 2 mg/kg, route of Cmax not stated, read-out: max concentration Cmax; for clearance: read-out: clearance CL; for half-life: read-out: half-life T1/2 (IV, h) (converted); for Vd: read-out: volumes of distribution Vdss; for bioavailability: PO 2 mg/kg vs IV 1 mg/kg, read-out: bioavailability F (%); for AUC(0-t): PO 2 mg/kg, read-out: the area under the plasma concentration-time curve AUC0-last PO. It is filed as in vivo. The protocol:
Experimental purposes: To test the pharmacokinetics of compounds in C57BL/6 mice
C57BL/6 mice (male, 7-9 weeks old, Shanghai Slack)
Test the pharmacokinetics characteristics of rodents after intravenous and oral administration in accordance with standard protocols, and the candidate compound was formulated into a clear solution in the experiment. The mice were administered by intravenous injection and orally once. The intravenous and oral vehicle is a 10% aqueous solution of hydroxypropyl β-cyclodextrin or a physiological saline solution. Six male C57BL/6 mice were employed in this assay, three of them were administered intravenously at a dose of 1 mg/kg, plasma samples were collected at 0 h (before administration) and 0.0833, 0.25, 0.5, 1, 2, 4, 7, 24 h after administration. Another three mice were administered by oral gavage at a dose of 2 mg/kg, plasma samples were collected at 0 h (before administration) and 0.5, 1, 2, 3, 4, 6, 24 h after administration. Collect whole blood samples within 24 hours, centrifuge at 3000 g for 15 minutes, separate the supernatant to obtain a plasma sample, 4 times volume of the internal standard acetonitrile solution was added to precipitate the protein. Centrifuge the supernatant and add an equal volume of water and centrifuge to take the supernatant. LC-MS/MS was used to quantitatively analyze plasma concentrations and calculate pharmacokinetic parameters such as max concentration (Cmax), clearance (CL), half-life (T1/2), volumes of distribution (Vdss), the area under the plasma concentration-time curve (AUC0-last), bioavailability (F), etc.

The target of data set [3] is hERG potassium channel (Homo sapiens (Human), UniProt Q12809). The experiment in a line: Assay on inhibiting hERG potassium channel (automatic patch clamp, CHO-hERG cells). It is filed as cell-based. The note with it: Qpatch, max test concentration 40 μM. As to the method:
Experimental purpose: Using automatic patch clamp method to detect the effect of the sample to be tested on hERG potassium channel.
4.1.1 CHO-hERG cells were cultured in 175 cm^2 flasks. When the cell density was increased to 60-80%, the culture solution was removed and the resultant was washed with 7 mL PBS (Phosphate Buffered Saline phosphate buffer), then 3 mL of digestive juice was added to digest.
4.1.2 After the digestion finished, 7 mL culture solution was added to neutralize. Then centrifuge, aspirate the supernatant, and then resuspend by adding 5 mL culture solution to ensure a cell density of 2-5×10^6/mL.
Single cell high impedance sealing and whole cell pattern formation were all done automatically by the Qpatch instrument. After the whole-cell recording mode was obtained, the cells were clamped at −80 mV. 50-Millisecond−50 mV preamplifier was applied prior to a 5 second+40 mV depolarization stimulus. Then the voltage was repolarized to −50 mV for 5 seconds and back to −80 mV. This voltage stimulation was applied every 15 seconds, and the extracellular fluid was recorded over 5 minutes after 2 minutes' record, and then the administration process was started. The compound concentration was started from the lowest test concentration, and each test concentration was given for 2.5 minutes. Test at least 3 cells (n≥3) for each concentration.
4.4.1 Dilute 20 mM mother liquor of the compound with extracellular fluid 5 μL of 20 mM mother liquor of the compound was added to 2495 μL extracellular fluid, and the mixture was 500-fold diluted to 40 μM. Then 0.2% DMSO in extracellular fluid was 3-fold diluted sequentially to obtain the final concentration to be tested.
4.4.2 The max test concentration was 40 μM, 6 concentrations were 40, 13.33, 4.44, 1.48, 0.49, and 0.16 μM respectively.
Experimental data was analyzed by XLFit software.

The test system of data set [4] is human small cell lung cancer NCI-H1417 cells subcutaneous xenograft tumor. The data set is described as follows: In vivo pharmacodynamic study, NCI-H1417 subcutaneous xenograft tumor CB-17 SCID mouse model. Also noted: species or system CB-17 SCID mice. To be noted: PO, QD. As to the method: The purpose of this experiment was to investigate the efficacy of some of the compounds of the present invention in the in vivo xenograft tumor of human small cell lung cancer NCI-H1417 cells in a CB-17 SCID mouse model.
Week age and weight: 6-8 weeks old, weight 18-23 g
Human small cell lung cancer NCI-H1417 cells were cultured in vitro in a single layer cultured in RPMI-1640 medium (Sigma-aldrich, R0883), supplemented with 10% fetal bovine serum and cultured at 37° C. 5% CO2. When the cell saturation is 80%-90%. The cells are harvested, counted, and inoculated.
0.2 mL of 10×10^6 (NCI-H1417 cells were subcutaneously inoculated into the right back of each mouse (PBS:Matrigel=1:1). After 21 days of tumor inoculation, group administration was started when the average volume reached 107 mm^3.
The experimental solvent was the 10% hydroxypropyl-β-cyclodextrin solution. The preparation method was as follows: 100 g of hydroxypropyl-β-cyclodextrin was weighed into a 1000 mL jar, 800 mL of ultrapure water was added, stirred overnight until completely dissolved, and then made up to 1000 mL. The test substance was dissolved in a solvent, and was prepared into a uniform solution of a certain concentration and stored at 4° C.
The experimental indicator is to investigate whether tumor growth is inhibited, delayed or cured. Tumor diameters were measured twice a week using vernier calipers. The tumor volume is calculated as: V=0.5a×b^2, and a and b represent the long and short diameters of the tumor, respectively.
The antitumor effect of the compound was evaluated by TG (%). TGI (%), reflecting the tumor growth inhibition rate. TGI (%) calculation: TGI (%)=[1−(the average tumor volume at the end of a treatment group−the average tumor volume at the beginning of the treatment group)/(the average tumor volume at the end of the treatment of the solvent control group−The average tumor volume at the start of treatment in the solvent control group) was ×100%. Solvent control: Vehicle (10% hydroxypropyl-β-cyclodextrin solution).

The mark [5] stands for this setting: 1.5 mg/kg, day 27 after administration.
Where [6] appears, read: 1.5 mg/kg, day 28 after administration.
Where [7] appears, read: 5 mg/kg, day 28 after administration.

SMILES strings stand for the structures.

hERG potassium channel, sequence (Q12809 whole entry): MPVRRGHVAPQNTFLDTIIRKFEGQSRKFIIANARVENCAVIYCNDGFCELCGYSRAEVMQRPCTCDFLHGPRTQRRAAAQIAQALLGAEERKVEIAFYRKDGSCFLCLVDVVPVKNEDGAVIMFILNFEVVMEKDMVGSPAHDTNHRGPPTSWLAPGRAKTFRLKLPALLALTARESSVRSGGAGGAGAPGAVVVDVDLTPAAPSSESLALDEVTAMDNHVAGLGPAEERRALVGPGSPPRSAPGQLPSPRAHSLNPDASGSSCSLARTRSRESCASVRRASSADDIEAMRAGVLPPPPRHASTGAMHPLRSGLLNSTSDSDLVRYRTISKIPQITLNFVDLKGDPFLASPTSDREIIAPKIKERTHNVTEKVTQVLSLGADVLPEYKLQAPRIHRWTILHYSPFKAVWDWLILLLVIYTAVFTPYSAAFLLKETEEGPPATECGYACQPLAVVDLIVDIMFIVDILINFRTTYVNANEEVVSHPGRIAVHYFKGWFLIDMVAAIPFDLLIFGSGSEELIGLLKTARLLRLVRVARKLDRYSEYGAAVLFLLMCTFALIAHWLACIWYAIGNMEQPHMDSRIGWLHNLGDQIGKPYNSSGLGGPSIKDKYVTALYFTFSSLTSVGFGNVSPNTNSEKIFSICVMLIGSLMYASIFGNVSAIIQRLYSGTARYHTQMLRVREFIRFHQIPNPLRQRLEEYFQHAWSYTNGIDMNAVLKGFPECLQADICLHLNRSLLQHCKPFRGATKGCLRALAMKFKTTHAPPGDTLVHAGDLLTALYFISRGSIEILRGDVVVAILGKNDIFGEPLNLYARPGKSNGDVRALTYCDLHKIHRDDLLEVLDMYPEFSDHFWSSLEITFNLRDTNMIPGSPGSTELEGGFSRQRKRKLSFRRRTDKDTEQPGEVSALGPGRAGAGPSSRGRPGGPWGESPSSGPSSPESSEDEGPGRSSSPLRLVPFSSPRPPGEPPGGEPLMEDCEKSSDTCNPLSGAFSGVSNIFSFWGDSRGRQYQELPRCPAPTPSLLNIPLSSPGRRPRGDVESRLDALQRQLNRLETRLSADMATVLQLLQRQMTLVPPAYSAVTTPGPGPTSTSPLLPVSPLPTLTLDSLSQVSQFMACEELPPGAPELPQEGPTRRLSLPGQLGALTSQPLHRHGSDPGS

In the case of `N[C@H]1CC[C@H](c2nc(C3(CN[C@@H]4C[C@H]4c4ccccc4)CC3)no2)CC1` [Example 144], the concentration for half-maximal inhibition (IC50) in data set [1] was no more than 50 nM. In addition, in data set [2], the Cmax was found to be 25.3 ng/mL, the clearance is 92 mL/min/kg, the half-life is 4.5 h and the Vd was 28.5 L/kg. Further, in data set [2], the bioavailability was determined as 21.5% and the AUC(0-t) is 0.17 µM·h. This compound returned an IC50 in data set [3] greater than 40 µM. In data set [4] (setting [5]), the “TGI (%)” value stood at 83.5% and the “Tumor volume (mm^3) (Day 27)” value is 180 ± 21 mm^3.

Consider `N[C@H]1CC[C@H](c2cc(C3(CN[C@@H]4C[C@H]4c4ccccc4)CC3)no2)CC1` [Example 241], for which the IC50 in data set [1] was no more than 50 nM. Further, in data set [2], the Cmax worked out at 49.5 ng/mL, the clearance is 104 mL/min/kg, the half-life is 2.4 h and the Vd amounted to 20.9 L/kg. Besides, in data set [2], the bioavailability stood at 36.7% and the AUC(0-t) amounted to 0.271 µM·h. In addition, the IC50 in data set [3] was greater than 40 µM. In data set [4] (setting [6]), the “TGI (%)” value is listed as 66% and the “Tumor volume (mm^3) (Day 28)” value stood at 251 ± 35 mm^3. Also, in data set [4] (setting [7]), the “TGI (%)” value was 110% and the “Tumor volume (mm^3) (Day 28)” value was determined as 61 ± 10 mm^3.

In the case of `N[C@H]1CC[C@@H](c2nc(C3(CN[C@@H]4C[C@H]4c4ccccc4)CC3)no2)CC1` [Example 145], the IC50 in data set [1] was no more than 50 nM. Also, in data set [2], the Cmax is 11.9 ng/mL, the clearance amounted to 108 mL/min/kg, the half-life is 11.7 h and the Vd worked out at 81.8 L/kg. Moreover, in data set [2], the bioavailability is 9.1% and the AUC(0-t) is 0.0654 µM·h. Moreover, the IC50 in data set [3] is greater than 40 µM. Besides, in data set [4] (setting [5]), the “TGI (%)” value came out at 66.6% and the “Tumor volume (mm^3) (Day 27)” value amounted to 250 ± 40 mm^3.
